Key:
[1] = biological target: T1, recombinant human HDAC6 (rHDAC6) (Homo sapiens, UniProt Q9UBN7); test: rHDAC6 inhibition, coupled Boc-Lys(Ac)-AMC/trypsin fluorescence assay; type: biochemical; conditions: purified recombinant human HDAC6
T1 construct: purchased BPS Bioscience (US)
T1 sequence (Q9UBN7 1-1215): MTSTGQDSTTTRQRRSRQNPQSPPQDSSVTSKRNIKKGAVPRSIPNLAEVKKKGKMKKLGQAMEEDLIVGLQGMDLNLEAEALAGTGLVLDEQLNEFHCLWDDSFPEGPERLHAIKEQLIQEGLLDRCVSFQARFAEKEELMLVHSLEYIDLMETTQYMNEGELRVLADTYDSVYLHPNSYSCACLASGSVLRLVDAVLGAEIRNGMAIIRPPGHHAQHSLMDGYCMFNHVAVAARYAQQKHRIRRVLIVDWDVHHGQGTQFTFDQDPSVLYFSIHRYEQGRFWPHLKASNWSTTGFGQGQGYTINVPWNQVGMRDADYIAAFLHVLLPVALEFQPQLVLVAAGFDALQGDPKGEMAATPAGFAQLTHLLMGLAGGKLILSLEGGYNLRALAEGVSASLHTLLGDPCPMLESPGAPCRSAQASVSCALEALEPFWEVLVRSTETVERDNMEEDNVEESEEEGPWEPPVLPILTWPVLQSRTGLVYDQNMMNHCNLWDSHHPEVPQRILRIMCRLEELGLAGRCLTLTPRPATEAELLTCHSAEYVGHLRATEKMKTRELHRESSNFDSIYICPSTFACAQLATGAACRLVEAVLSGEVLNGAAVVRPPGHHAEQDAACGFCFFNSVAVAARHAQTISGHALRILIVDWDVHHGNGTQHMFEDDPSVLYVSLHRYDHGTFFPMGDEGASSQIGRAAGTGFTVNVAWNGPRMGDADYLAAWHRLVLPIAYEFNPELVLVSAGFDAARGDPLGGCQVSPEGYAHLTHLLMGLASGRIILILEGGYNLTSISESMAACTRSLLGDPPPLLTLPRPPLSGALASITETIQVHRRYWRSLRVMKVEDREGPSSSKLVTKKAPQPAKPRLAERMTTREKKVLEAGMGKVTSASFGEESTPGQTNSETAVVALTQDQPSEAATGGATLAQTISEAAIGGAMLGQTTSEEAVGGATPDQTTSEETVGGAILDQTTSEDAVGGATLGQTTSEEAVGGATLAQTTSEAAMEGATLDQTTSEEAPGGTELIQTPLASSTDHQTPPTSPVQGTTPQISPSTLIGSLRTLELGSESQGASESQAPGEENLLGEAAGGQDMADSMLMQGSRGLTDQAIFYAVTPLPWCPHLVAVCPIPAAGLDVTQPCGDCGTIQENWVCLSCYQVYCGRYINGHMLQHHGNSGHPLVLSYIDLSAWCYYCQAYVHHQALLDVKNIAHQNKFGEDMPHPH
Description: (§1) HDAC assays were performed as previously reported. The recombinant human histone deacetylases rHDAC1 and rHDAC6 were obtained from BPS Bioscience (US).
(§2) All reactions were performed in black half area 96-well microplates (Greiner bio-one, Germany) according to the general procedure described by Wegener et al. with some minor modifications. […] The buffer components were purchased from Merck (Germany), Roth (Germany) and Sigma-Aldrich.
(§3) The enzyme reaction was initiated by the addition of Boc-Lys(Ac)-AMC substrate. The reaction mixture was incubated at 30 °C in the dark and stopped after 60 min by the addition of a mixture of 70 µM trypsin and 200 nM SAHA. The fluorescence of AMC served as an indirect measure of HDAC enzyme activity. The kinetics of AMC release was measured on a PolarStar fluorescence plate reader (BMG) with an excitation wavelength of 340 nm and an emission wavelength of 460 nm. Complete cleavage of deacetylated Boc-Lys-AMC by trypsin was achieved after about 10–15 min. The fluorescence intensity of the plateau was averaged over at least 5 min and normalized with respect to the percentage of enzyme activity. Finally, the normalized fluorescence intensities were plotted versus the concentration of test compounds and fitted to a four-parameter logistic model to calculate the IC50 values.

[2] = Thioester hydrolysis in assay buffer, thiol detection with fluorescent coumarin probe 10; type: physicochemical; conditions: incubation with probe 10 in buffer FB-188, up to 100 minutes
Excerpt: We therefore undertook preliminary studies to attempt to shed light on the reasons for the high potency of our thioesters in the enzymatic assays. We first envisaged that our assay buffer could potentially be responsible for thioester hydrolysis. We prepared and used synthetic probe 10 [30] (Scheme 3) in order to test this hypothesis. Coumarin-based probe 10 is known to react extremely fast with thiols through a Michael addition reaction. While the fluorescence of 10 is efficiently quenched by the intramolecular double bond, upon reaction with thiols, a highly fluorescent conjugate 11 is produced.
[formula] […] Bottom left: Fluorescence intensity at 465 nm (Y-axis, A.U.) as a function of the number of equivalents of 2-mercaptoethanol added (X-axis). Bottom right: Fluorescence intensity at 465 nm (Y-axis, A.U.) as a function of the incubation time (X-axis, minutes) of probe 10 with thioester 8.
Control experiments were performed using 2-mercaptoethanol as the thiol source. Fluorescence spectra of 10 (10^−6 M 10 in buffer FB-188 [31]) were recorded after incubation with 0, 0.2, 0.4, 0.6, 0.8, 1.0 and 1.5 equiv 2-mercaptoethanol (Scheme 3, bottom left). As expected, a linear relationship between fluorescence intensity and the concentration of thiol could be observed between 0 and 1.0 equiv, confirming the sensitivity and reliability of this system at low concentration. […]

[3] = tested on: A549 (human lung carcinoma); test: Cytotoxicity against A549 cell line; type: cell-based; conditions: Homo sapiens; A549 cells
Description: (§4) Thioesters 7–9 were assayed against A549, MCF7 and WI38 cell lines, in addition to recombinant human rHDAC1 (class I) and recombinant human HDAC6 (rHDAC6, class II) as previously reported. Psammaplin A (3), prereduced psammaplin A thiol (4), and SAHA (1) were included as control compounds. IC50^6/1 is defined by the ratio IC50^HDAC6/IC50^HDAC1 and was used as an indicator of isoform selectivity in vitro.

[4] = tested on: MCF7 (human breast carcinoma); test: Cytotoxicity against MCF7 cell line; type: cell-based; conditions: MCF7 cells
Description: as §4

[5] = tested on: WI38 (normal human lung fibroblast); test: Cytotoxicity against WI38 cell line; type: cell-based; conditions: Homo sapiens, WI-38; WI38 cells
Description: as §4

rHDAC1 = biological target: T2, rHDAC1 (Homo sapiens, UniProt Q13547); test: rHDAC1 inhibition, coupled Boc-Lys(Ac)-AMC/trypsin fluorescence assay; type: biochemical
T2 construct: purchased BPS Bioscience (US)
T2 sequence (Q13547 whole entry): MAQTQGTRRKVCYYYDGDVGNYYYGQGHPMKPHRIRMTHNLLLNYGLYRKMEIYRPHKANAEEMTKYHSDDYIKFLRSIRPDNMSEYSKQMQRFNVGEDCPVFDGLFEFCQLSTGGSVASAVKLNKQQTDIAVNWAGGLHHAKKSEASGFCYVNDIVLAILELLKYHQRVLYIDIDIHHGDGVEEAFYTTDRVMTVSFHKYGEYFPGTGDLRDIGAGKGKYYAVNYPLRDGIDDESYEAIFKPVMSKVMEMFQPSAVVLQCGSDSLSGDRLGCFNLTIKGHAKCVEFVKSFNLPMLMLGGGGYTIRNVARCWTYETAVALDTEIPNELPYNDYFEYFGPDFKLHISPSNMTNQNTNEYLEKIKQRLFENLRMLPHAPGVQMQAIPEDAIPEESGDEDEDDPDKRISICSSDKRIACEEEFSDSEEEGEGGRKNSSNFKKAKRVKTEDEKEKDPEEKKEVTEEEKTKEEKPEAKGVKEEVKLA
Description: as §1, §2, §3

- IC50 [1]: 23 µM
- thiol formation (thioester hydrolysis) in assay buffer [2]: no evidence of thiol formation
- IC50^6/1 (ratio IC50 HDAC6/IC50 HDAC1) (rHDAC1; isoform selectivity in vitro): 4560
- IC50 (rHDAC1; purified recombinant human HDAC1): 0.005 µM
- times less potent than the corresponding free thiol analogue against rHDAC1 (rHDAC1; thioester vs free thiol): 2.5 times
Structure (SMILES): COc1ccc(C/C(=N\O)C(=O)NCCSC(C)=O)cc1Br [Compound 8, (E)-(S)-2-(3-(3-Bromo-4-methoxyphenyl)-2-(hydroxyimino)propanamido)ethyl ethanethioate]
- IC50 [3]: 8.3 µM
- IC50 [4]: 3.2 µM
- IC50 [5]: 5.2 µM
